Experiment in all cases: relative viability (nuclei count vs DMSO), 5 days (fraction); higher = more cells survive
Compound in the assay “Linsitinib + Tozasertib”: C[C@]1(O)C[C@@H](c2nc(-c3ccc4ccc(-c5ccccc5)nc4c3)c3c(N)nccn32)C1 [Linsitinib] + Cc1cc(Nc2cc(N3CCN(C)CC3)nc(Sc3ccc(NC(=O)C4CC4)cc3)n2)n[nH]1 [Tozasertib] (partner 0.1 µM)
The essentials:
(§1)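 Five library-drug doses in √10 steps were combined with a fixed anchor-drug dose, or a single drug was given alone, by pin tool to lung cancer cell lines in 1536-well plates the day after seeding. Nuclei were stained and counted after 5 days. Relative viability is the nuclei count in treated wells over that in vehicle wells, taken as the median of duplicate plates.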

Compound in the assay “Ispinesib + Decitabine”: Cc1ccc(C(=O)N(CCCN)[C@@H](c2nc3cc(Cl)ccc3c(=O)n2Cc2ccccc2)C(C)C)cc1 [Ispinesib] + Nc1ncn([C@H]2C[C@H](O)[C@@H](CO)O2)c(=O)n1 [Decitabine] (partner 2 µM)
In short, it runs like this:
as §1

Compound in the assay “Linsitinib + Foretinib”: C[C@]1(O)C[C@@H](c2nc(-c3ccc4ccc(-c5ccccc5)nc4c3)c3c(N)nccn32)C1 [Linsitinib] + COc1cc2c(Oc3ccc(NC(=O)C4(C(=O)Nc5ccc(F)cc5)CC4)cc3F)ccnc2cc1OCCCN1CCOCC1 [Foretinib] (partner 0.25 µM)
In short, it runs like this:
as §1

Compound in the assay “Linsitinib + Palbociclib”: C[C@]1(O)C[C@@H](c2nc(-c3ccc4ccc(-c5ccccc5)nc4c3)c3c(N)nccn32)C1 [Linsitinib] + CC(=O)c1c(C)c2cnc(Nc3ccc(N4CCNCC4)cn3)nc2n(C2CCCC2)c1=O [Palbociclib] (partner 0.5 µM)
The essentials: as §1

Consider UMC-11, for which the relative viability was 0.204 with Linsitinib + Tozasertib (first compound 0.01 µM); 0.196 with Linsitinib + Tozasertib (first compound 0.1 µM); 0.19 with Linsitinib + Tozasertib (first compound 1 µM); 0.67 in the assay with Ispinesib + Decitabine (first compound 0.001 µM); 0.904 in the assay with Ispinesib + Decitabine (first compound 0.003162 µM); 0.583 in the assay with Ispinesib + Decitabine (first compound 0.01 µM). For the same cell line, the relative viability with Ispinesib + Decitabine (first compound 0.03162 µM) turned out to be 0.28; in the assay with Ispinesib + Decitabine (first compound 0.1 µM), 0.23; in the assay with Linsitinib + Foretinib (first compound 0.01 µM) it was 0.976; with Linsitinib + Foretinib (first compound 0.03162 µM) it was 0.89; with Linsitinib + Foretinib (first compound 0.1 µM) it was 1.03; with Linsitinib + Foretinib (first compound 1 µM), 1.02. The relative viability stood at 0.303 in the assay with Linsitinib + Palbociclib (first compound 0.01 µM); 0.301 with Linsitinib + Palbociclib (first compound 0.03162 µM); 0.33 in the assay with Linsitinib + Palbociclib (first compound 0.1 µM); 0.322 in the assay with Linsitinib + Palbociclib (first compound 0.3162 µM); 0.332 with Linsitinib + Palbociclib (first compound 1 µM).
